# Target: T1, hα7-wt nAChR stably expressed in the GH4C1 cell line (Homo sapiens, UniProt P36544)
# T1 construct: expressed in transfected cells
# Experiment: Ca2+ flux imaging (FLIPR) of PAM activity with choline as agonist
# Format: cell-based
# Conditions: efficacy relative to 100 μM choline alone (defined as 1); peak fluorescence, fluo-4AM; compounds tested 0.1 μM to 30 μM, efficacy criterion at 10 μM
# Source text: Stable expression in mammalian cells in general and rat GH4C1 cells in particular, of cDNA clones encoding the human α7 wild-type sequence (hα7-wt nAChR) and in which the coding region is placed downstream of a promoter results in the appearance of functional α7 nAChRs on the surface of the mammalian cells. This technique has provided a powerful means of assessing the function of α7 wild-type protein. Given the fact that the cation permeability of the α7 nicotinic receptor preferentially favours calcium, fluorescent imaging of Ca^2+ flux through the hα7-wt nAChR stably expressed in the GH4C1 cell line was used as a first means of assaying modulator activity of the compounds of the present invention.
# a) Assay Buffer • Hanks buffered saline solution (HBSS, Invitrogen, Belgium), supplemented with 10 mM HEPES (Invitrogen, Belgium), CaCl2 to a final concentration of 5 mM, 0.1% Bovine serum albumin (Sigma-Aldrich NV, Belgium), 2.5 mM probenecid (Sigma-Aldrich NV, Belgium).
# b) Calcium-Sensitive Dye—Fluo-4AM • Fluo-4AM (Molecular Probes, USA) was dissolved in DMSO containing 10% Pluronic acid (Molecular Probes, USA) to give a stock solution which was aliquoted and could be stored at −20° C. until later use. On the day of the experiment Fluo-4AM stock was defrosted and diluted in DMEM/F12 (Invitrogen, Belgium) containing 2.5 mM probenicid and 0.1% BSA to give a final concentration of 2 μM.
# c) 96-well Plates • BD Biocoat poly-D-lysine 96-well black/clear bottom plates (BD Biosciences, Belgium)
# d) Calcium Flux Measurement • A Fluorimetric Imaging Plate Reader (FLIPR, Molecular Devices Corporation, Sunnyvale, USA) was used to measure intracellular free-calcium flux signals
# Monolayers of hα7-wt nAChR-expressing cells were grown in multi-well plates, in particular black-sided, transparent bottomed 96 well plates coated with poly-D-lysine for 24 hours prior to loading with a fluorescent calcium indicator, in a particular embodiment loading with fluo-3 or fluo-4AM for up to 90 minutes, in an even more particular embodiment loading with fluo-4AM for up to 90 minutes, and in a preferred embodiment loading with fluo-4AM for 60 minutes.
# In a particular embodiment, the α7 nicotinic receptor agonist was choline, a more particular embodiment choline applied at a sub-maximal concentration of 100 μM.
# A control response to choline was calculated on each plate from the difference in peak fluorescence in wells receiving either choline or assay buffer alone. Compounds of the present invention were tested at a concentration range from 0.1 μM to 30 μM.
# The activity ranges are defined as follows; A denotes an activity range from 1.1 till 1.5, B denotes an activity range from 1.5 till 2.0, C denotes an activity range from 2.0 till 3.0, D denotes an activity range from 3.0 till 4.5 and E denotes an efficacy from at least 4.5.
# T1 sequence (P36544 23-502): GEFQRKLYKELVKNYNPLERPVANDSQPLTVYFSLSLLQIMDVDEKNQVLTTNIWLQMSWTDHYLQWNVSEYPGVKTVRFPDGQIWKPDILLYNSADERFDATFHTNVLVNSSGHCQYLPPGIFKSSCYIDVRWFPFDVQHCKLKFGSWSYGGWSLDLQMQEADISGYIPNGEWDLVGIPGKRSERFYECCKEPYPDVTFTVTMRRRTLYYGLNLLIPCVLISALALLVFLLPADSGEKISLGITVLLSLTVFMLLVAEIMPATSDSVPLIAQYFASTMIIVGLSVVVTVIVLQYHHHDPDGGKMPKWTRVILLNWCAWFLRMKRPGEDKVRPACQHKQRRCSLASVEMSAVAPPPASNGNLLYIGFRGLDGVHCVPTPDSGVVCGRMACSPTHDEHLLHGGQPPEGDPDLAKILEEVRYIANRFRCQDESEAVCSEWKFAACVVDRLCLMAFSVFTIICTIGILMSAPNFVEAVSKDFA
row,Compound,Activity Range
1,"Fc1ccc(Nc2nc(-c3cccnc3)c(CN3CCOCC3)s2)cc1C(F)(F)F [Compound 90, (4-Fluoro-3-trifluoromethyl-phenyl)-(5-morpholin-4-ylmethyl-4-pyridin-3-yl-thiazol-2-yl)-amine]",C (C denotes an activity range from 2.0 till 3.0)
2,"CCOC(=O)c1sc(Nc2ccc(Cl)cc2Cl)nc1-c1ccccc1 [int. 6, 2-(2,4-Dichloro-phenylamino)-4-phenyl-thiazole-5-carboxylic acid ethyl ester]",E (E denotes an efficacy from at least 4.5)
3,COCc1nc(Nc2cccc(C(F)(F)F)c2)sc1C(=O)OC [Compound 103],E (E denotes an efficacy from at least 4.5)
4,Cc1cncc(-c2nc(Nc3cccc(Cl)c3Cl)sc2CO)c1 [Compound 128],E (E denotes an efficacy from at least 4.5)
5,"Cc1ccc(Nc2nc(-c3ccccc3)c(C(=O)Nc3cccnc3)s2)c(C)c1 [Compound 170, 5-Thiazolecarboxamide, 2-[(2,4-dimethylphenyl)amino]-4-phenyl-N-3-pyridinyl-]",E (E denotes an efficacy from at least 4.5)
6,COc1ccccc1Nc1nc(-c2ccccc2Cl)cs1 [Compound 42],B (B denotes an activity range from 1.5 till 2.0)
7,"O=C(Nc1cccnc1)c1sc(Nc2ccc(F)cc2)nc1-c1ccccc1 [Compound 169, 5-Thiazolecarboxamide, 2-[(4-fluorophenyl)amino]-4-phenyl-N-3-pyridinyl-]",D (D denotes an activity range from 3.0 till 4.5)
8,"OCc1sc(Nc2cccc(C(F)(F)F)c2)nc1-c1ccc(Cl)cc1Cl [Compound 31, [4-(2,4-Dichloro-phenyl)-2-(3-trifluoromethyl-phenylamino)-thiazol-5-yl]-methanol]",B (B denotes an activity range from 1.5 till 2.0)
9,CC(=O)NCc1sc(Nc2ccc(F)c(C(F)(F)F)c2)nc1-c1cccnc1 [Compound 32],C (C denotes an activity range from 2.0 till 3.0)
10,CCOC(=O)NCc1sc(Nc2cccc(C(F)(F)F)c2)nc1-c1cccnc1 [Compound 168],E (E denotes an efficacy from at least 4.5)
11,Cc1cccc(Nc2nc(-c3cnc4ccccn34)c(F)s2)c1 [Compound 82],B (B denotes an activity range from 1.5 till 2.0)
12,Cc1sc(Nc2cccc(C(F)(F)F)c2)nc1-c1cccnc1 [Compound 101],D (D denotes an activity range from 3.0 till 4.5)
13,Clc1ccc(Nc2nc(-c3cnc4cnccn34)cs2)cc1 [Compound 75],C (C denotes an activity range from 2.0 till 3.0)
14,COc1cc(OC)c(Nc2nc(-c3ccc(F)c(F)c3)c(CC(=O)N3CCCC3)s2)cc1Cl [Compound 132],E (E denotes an efficacy from at least 4.5)
15,FC(F)(F)c1cccc(Nc2nc(-c3cnc4ccccn34)cs2)c1 [Compound 71],B (B denotes an activity range from 1.5 till 2.0)
16,COc1cc(OC)c(Nc2nc(-c3ccc4c(c3)OCCO4)c(CC#N)s2)cc1Cl [int. 20],E (E denotes an efficacy from at least 4.5)
17,CCOC(=O)c1sc(Nc2cccc(C(F)(F)F)c2)nc1C1CCCN(C(=O)OCc2ccccc2)C1 (centres unmarked) [Compound 160],E (E denotes an efficacy from at least 4.5)
18,FC(F)(F)c1cccc(Nc2nc(-c3ccccc3)cs2)c1 [int. 1],C (C denotes an activity range from 2.0 till 3.0)
19,COc1ccc(OC)c(-c2csc(Nc3cc(F)ccc3C)n2)c1 [Compound 33],D (D denotes an activity range from 3.0 till 4.5)

row,Compound,Activity Range
1,COc1cc(OC)c(Nc2nc(-c3ccncc3)c(CN3CCCC3)s2)cc1Cl [Compound 99],D (D denotes an activity range from 3.0 till 4.5)
2,Clc1ccc(Nc2nc(-c3cnc4ccccn34)cs2)cc1 [Compound 53],D (D denotes an activity range from 3.0 till 4.5)
3,Brc1ccc(Nc2nc(-c3cnc4ccccn34)cs2)cc1 [Compound 58],C (C denotes an activity range from 2.0 till 3.0)
4,Fc1cncc(-c2csc(Nc3ccc(F)c(C(F)(F)F)c3)n2)c1 [Compound 5],D (D denotes an activity range from 3.0 till 4.5)
5,Cc1cccc(Nc2nc(-c3cccnc3)cs2)c1 [Compound 76],C (C denotes an activity range from 2.0 till 3.0)
6,Fc1ccc(Nc2nc(-c3cnc4ccccn34)cs2)cc1C(F)(F)F [Compound 9],C (C denotes an activity range from 2.0 till 3.0)
7,COc1ccc(OC)c(-c2csc(Nc3ccc(Cl)cc3Cl)n2)c1 [Compound 36],C (C denotes an activity range from 2.0 till 3.0)
8,Cc1sc(Nc2ccc(C(F)(F)F)cc2)nc1-c1cccnc1 [Compound 87],C (C denotes an activity range from 2.0 till 3.0)
9,"NC(=O)Cc1sc(Nc2cccc(C(F)(F)F)c2)nc1-c1ccc(Cl)cc1Cl [Compound 18, 2-[4-(2,4-Dichloro-phenyl)-2-(3-trifluoromethyl-phenylamino)-thiazol-5-yl]-acetamide]",B (B denotes an activity range from 1.5 till 2.0)
10,Fc1ccc(Nc2nc(-c3cnc4sccn34)cs2)cc1C(F)(F)F [Compound 44],C (C denotes an activity range from 2.0 till 3.0)
11,CCOC(=O)c1sc(Nc2ccc(OC)cc2)nc1C1CCCN(C(=O)OCc2ccccc2)C1 (centres unmarked) [Compound 104],E (E denotes an efficacy from at least 4.5)
12,OCc1sc(Nc2cccc(C(F)(F)F)c2)nc1C(F)(F)F [Compound 119],E (E denotes an efficacy from at least 4.5)
13,FC(F)(F)c1cccc(Nc2nc(-c3ccoc3)cs2)c1 [Compound 74],B (B denotes an activity range from 1.5 till 2.0)
14,"COCCNC(=O)Cc1sc(Nc2cc(Cl)ccc2Cl)nc1-c1ccncc1 [Compound 106, 2-[(2,5-dichlorophenyl)amino]-N-(2-methoxyethyl)-4-(4-pyridinyl)-5-thiazoleacetamide]",E (E denotes an efficacy from at least 4.5)
15,CCCc1nc(Nc2cccc(C(F)(F)F)c2)sc1CO [Compound 117],E (E denotes an efficacy from at least 4.5)
16,CCOC(=O)c1sc(Nc2ccc(OC)cc2)nc1C [Compound 144],E (E denotes an efficacy from at least 4.5)
17,Fc1ccc(Nc2nc(-c3cccnc3)c(F)s2)cc1C(F)(F)F [Compound 81],C (C denotes an activity range from 2.0 till 3.0)
18,Cc1cncc(-c2csc(Nc3cccc(Cl)c3Cl)n2)c1 [Compound 67],C (C denotes an activity range from 2.0 till 3.0)
19,Cc1cc(Nc2nc(-c3cccnc3)cs2)ccc1F [Compound 78],B (B denotes an activity range from 1.5 till 2.0)

# — patent US9388175B2, “2-aniline-4-aryl substituted thiazole derivatives” (Janssen Pharmaceutica N.V., priority 2005, dated 2016)
